Read-outs that look alike come from different tables or passages of the source.
Key:
[1] = test system: Mino cells; experiment: Antiproliferative effect, MTS cell viability assay, Mino cells; assay type: cell-based; details: Homo sapiens, Mino mantle cell lymphoma cells, read-out: IC50 (anti-proliferation) Mino cells
Method in brief: (§1)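 MTS read-out, A490 of formazan from metabolically active cells; compound 0–10 μM (0, 0.001, 0.01, 0.1, 1, 10 μM), 72 h exposure.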

[2] = molecular target: BTK (Homo sapiens, UniProt Q06187); experiment: Degradation of BTK protein in Namalwa cells (Western blot; DC50, Dmax); details: for DC50: cell line not given
Chain of BTK (Q06187 whole entry): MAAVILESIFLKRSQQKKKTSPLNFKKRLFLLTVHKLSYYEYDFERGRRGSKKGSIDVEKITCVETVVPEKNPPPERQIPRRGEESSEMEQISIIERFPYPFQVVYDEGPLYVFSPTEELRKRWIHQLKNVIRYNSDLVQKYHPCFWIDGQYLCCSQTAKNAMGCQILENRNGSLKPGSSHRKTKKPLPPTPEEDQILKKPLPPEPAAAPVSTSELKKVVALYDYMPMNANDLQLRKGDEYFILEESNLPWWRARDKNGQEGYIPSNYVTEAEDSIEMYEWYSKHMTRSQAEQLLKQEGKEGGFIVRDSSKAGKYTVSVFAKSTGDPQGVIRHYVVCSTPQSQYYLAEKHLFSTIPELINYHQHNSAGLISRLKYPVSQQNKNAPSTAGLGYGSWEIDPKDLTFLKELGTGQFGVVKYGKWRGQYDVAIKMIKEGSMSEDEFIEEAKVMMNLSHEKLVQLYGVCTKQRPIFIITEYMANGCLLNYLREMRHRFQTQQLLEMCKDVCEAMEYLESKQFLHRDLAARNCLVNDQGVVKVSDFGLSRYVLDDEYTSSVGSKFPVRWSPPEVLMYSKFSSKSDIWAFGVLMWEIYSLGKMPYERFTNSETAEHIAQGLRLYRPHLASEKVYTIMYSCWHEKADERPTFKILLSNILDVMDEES

[3] = test system: JeKo-1 cells; experiment: Antiproliferative effect, MTS cell viability assay, JeKo-1 cells; assay type: cell-based; details: Homo sapiens; JeKo-1 mantle cell lymphoma cells; read-out: IC50 (anti-proliferation) JeKO-1 cells
Method in brief: as §1

[4] = read-out: DC50 (BTK degradation), concentration giving 50% reduction of BTK expression level
[5] = read-out: Dmax (BTK degradation)

Row | SMILES | IC50 ([1]; MINO) [µM] | Dmax [2] [%] | DC50 ([2]; BTK degradation) [µM] | IC50 [3] [µM] | DC50 [2, 4] [µM] | Dmax [2, 5] [%] | IC50 [1] [µM] | degradation of BTK protein ([2]; Namalwa B lymphocyte cells, various concentrations, 24 hours, Western blot)
1 | NC(=O)c1c(-c2ccc(Oc3ccccc3)cc2)nn2c1NCC[C@H]2C1CCN(C2CCN(CCN3CCC(c4ccc5c(c4)C(=O)N(C4CCC(=O)NC4=O)C5=O)CC3)CC2)CC1 (stereo partly drawn) [Compound 327, (7S)-7-(1′-(2-(4-(2-(2,6-dioxopiperidin-3-yl)-1,3-dioxoisoindolin-5-yl)piperidin-1-yl)ethyl)-[1,4′-bipiperidin]-4-yl)-2-(4-phenoxyphenyl)-4,5,6,7-tetrahydropyrazolo[1,5-a]pyrimidine-3-carboxamide] | 1 to 10 | > 75 | 0.01 to 0.05 | > 10 |  |  |  | 
2 | Nc1ncnc2c1c(-c1ccc(Oc3ccccc3)cc1)nn2[C@@H]1CCCN(C(=O)N2CC(N3CCN(c4ccc5c(c4)CN(C4CCC(=O)NC4=O)C5=O)CC3)C2)C1 (stereo partly drawn) [Compound 488, 3-(5-(4-(1-((R)-3-(4-amino-3-(4-phenoxyphenyl)-1H-pyrazolo[3,4-d]pyrimidin-1-yl)piperidine-1-carbonyl)azetidin-3-yl)piperazin-1-yl)-1-oxoisoindolin-2-yl)piperidine-2,6-dione] | < 1 |  |  | < 1 | < 0.01 | > 90 |  | 
3 | NC(=O)c1c(-c2ccc(Oc3ccccc3)cc2)nn2c1NCCC2C1CCN(C2CCN(C(=O)N3CCN(c4ccc5c(c4)C(=O)N(C4CCC(=O)NC4=O)C5=O)CC3)CC2)CC1 (stereo not drawn) [Compound 337, 7-(1′-(4-(2-(2,6-dioxopiperidin-3-yl)-1,3-dioxoisoindolin-5-yl)piperazine-1-carbonyl)-[1,4′-bipiperidin]-4-yl)-2-(4-phenoxyphenyl)-4,5,6,7-tetrahydropyrazolo[1,5-a]pyrimidine-3-carboxamide] | > 10 | > 50 | > 0.05 | 1 to 10 |  |  |  | 
4 | Nc1ncnc2c1c(-c1ccc(Oc3ccccc3)cc1)nn2C1CCN(CCN2CCC(CN3CCC(c4ccc(N5CCC(=O)NC5=O)cc4)CC3)CC2)CC1 [Compound 553, 1-(4-(1-((1-(2-(4-(4-amino-3-(4-phenoxyphenyl)-1H-pyrazolo[3,4-d]pyrimidin-1-yl)piperidin-1-yl)ethyl)piperidin-4-yl)methyl)piperidin-4-yl)phenyl)dihydropyrimidine-2,4(1H,3H)-dione] |  |  |  | < 1 | < 0.01 | > 90 | < 1 | 
5 | Nc1ncnc2c1c(-c1ccc(Oc3ccccc3)cc1)nn2C1CCN(CC2CCN(CC3CCN(c4ccc5c(c4)C(=O)N(C4CCC(=O)NC4=O)C5=O)CC3)C2)CC1 (stereo not drawn) [Compound 445, 5-(4-((3-((4-(4-amino-3-(4-phenoxyphenyl)-1H-pyrazolo(3,4-d)pyrimidin-1-yl)piperidin-1-yl)methyl)pyrrolidin-1-yl)methyl)piperidin-1-yl)-2-(2,6-dioxopiperidin-3-yl)isoindoline-1,3-dione] | 1 to 10 |  |  | 1 to 10 | 0.01 to 0.05 | > 90 |  | dose-dependent degradation
6 | NC(=O)c1c(-c2ccc(Oc3ccccc3)cc2)nn2c1NCCC2C1CCN(C(=O)N2CCN(CCN3CCC(c4ccc5c(c4)C(=O)N(C4CCC(=O)NC4=O)C5=O)CC3)CC2)CC1 (stereo not drawn) [Compound 287] | 1 to 10 | > 75 | 0.01 to 0.05 | > 10 |  |  |  | 
7 | Nc1ncnc2c1c(-c1ccc(Oc3ccccc3)cc1)nn2C1CCN(CCN2CCC(Sc3ccc4c(c3)C(=O)N(C3CCC(=O)NC3=O)C4=O)CC2)CC1 (stereo not drawn) [Compound 471, 5-((1-(2-(4-(4-amino-3-(4-phenoxyphenyl)-1H-pyrazolo[3,4-d]pyrimidin-1-yl)piperidin-1-yl)ethyl)piperidin-4-yl)thio)-2-(2,6-dioxopiperidin-3-yl)isoindoline-1,3-dione] | 1 to 10 |  |  | 1 to 10 | 0.01 to 0.05 | > 75 |  | 
8 | Nc1ncnc2c1c(-c1ccc(Oc3ccccc3)cc1)nn2C1CCN(C2CCN(C(=O)N3CCN(CCN4CCN(c5ccc6c(c5)C(=O)N(C5CCC(=O)NC5=O)C6=O)CC4)CC3)CC2)CC1 (stereo not drawn) [Compound 245] | 1 to 10 | > 75 | 0.01 to 0.05 | 1 to 10 |  |  |  | 
9 | NC1=NC=NC2C1C(c1ccc(Oc3ccccc3)cc1)=NN2C1CCN(C(=O)N2CC(C3CN(c4ccc5c(c4)CN([C@H]4CCC(=O)NC4=O)C5=O)C3)C2)CC1 (stereo partly drawn) [Compound 495, (3S)-3-(5-(1′-(4-(4-amino-3-(4-phenoxyphenyl)-3a,7a-dihydro-1H-pyrazolo[3,4-d]pyrimidin-1-yl)piperidine-1-carbonyl)-[3,3′-biazetidin]-1-yl)-1-oxoisoindolin-2-yl)piperidine-2,6-dione] | < 1 |  |  | < 1 | < 0.01 | > 90 |  | 
10 | Nc1ncnc2c1c(-c1ccc(Oc3ccccc3)cc1)nn2C1CCN(C2CCN(C(=O)N3CCC(CC4CCN(c5ccc6c(c5)C(=O)N(C5CCC(=O)NC5=O)C6=O)CC4)CC3)CC2)CC1 (stereo not drawn) [Compound 237, 5-(4-((1-(4-(4-amino-3-(4-phenoxyphenyl)-1H-pyrazolo[3,4-d]pyrimidin-1-yl)-[1,4′-bipiperidine]-1′-carbonyl)piperidin-4-yl)methyl)piperidin-1-yl)-2-(2,6-dioxopiperidin-3-yl)isoindoline-1,3-dione] | < 1 | > 90 | 0.01 to 0.05 | 1 to 10 |  |  |  | 
11 | Nc1ncnc2c1c(-c1ccc(Oc3ccccc3)cc1)nn2C1CCN(C[C@H]2CCN(C[C@@H]3CCN(c4ccc5c(c4)C(=O)N(C4CCC(=O)NC4=O)C5=O)C3)C2)CC1 (stereo partly drawn) [Compound 447b, 5-((S)-3-(((R)-3-((4-(4-amino-3-(4-phenoxyphenyl)-1H-pyrazolo[3,4-d]pyrimidin-1-yl)piperidin-1-yl)methyl)pyrrolidin-1-yl)methyl)pyrrolidin-1-yl)-2-(2,6-dioxopiperidin-3-yl)isoindoline-1,3-dione] | 1 to 10 |  |  | 1 to 10 | < 0.01 | > 90 |  | 
12 | Nc1ncnc2c1c(-c1ccc(Oc3ccccc3)cc1)nn2C1CCN(C2CCN(C(=O)N3CCN(CCC4CCN(c5ccc6c(c5)C(=O)N(C5CCC(=O)NC5=O)C6=O)CC4)CC3)CC2)CC1 (stereo not drawn) [Compound 247, 5-(4-(2-(4-(4-(4-amino-3-(4-phenoxyphenyl)-1H-pyrazolo[3,4-d]pyrimidin-1-yl)-[1,4′-bipiperidine]-1′-carbonyl)piperazin-1-yl)ethyl)piperidin-1-yl)-2-(2,6-dioxopiperidin-3-yl)isoindoline-1,3-dione] | 1 to 10 | > 75 | 0.01 to 0.05 | 1 to 10 |  |  |  | 
13 | Nc1ncnc2c1c(-c1ccc(Oc3ccccc3)cc1)nn2C1CCN(CCCN2CCC(CN3CCC(c4ccc5c(c4)oc(=O)n5C4CCC(=O)NC4=O)CC3)C2)CC1 (stereo not drawn) [Compound 543, 3-(6-(1-((1-(3-(4-(4-amino-3-(4-phenoxyphenyl)-1H-pyrazolo[3,4-d]pyrimidin-1-yl)piperidin-1-yl)propyl)pyrrolidin-3-yl)methyl)piperidin-4-yl)-2-oxobenzo[d]oxazol-3(2H)-yl)piperidine-2,6-dione] | 1 to 10 |  |  | 1 to 10 | 0.01 to 0.05 | > 75 |  | 
14 | NC(=O)c1c(-c2ccc(Oc3ccccc3)cc2)nn2c1NCCC2C1CCN(C2CCN(C(=O)N3CCC(CN4CCN(c5ccc6c(c5)CN(C5CCC(=O)NC5=O)C6=O)CC4)CC3)CC2)CC1 (stereo not drawn) [Compound 350, 7-(1′-(4-((4-(2-(2,6-dioxopiperidin-3-yl)-1-oxoisoindolin-5-yl)piperazin-1-yl)methyl)piperidine-1-carbonyl)-[1,4′-bipiperidin]-4-yl)-2-(4-phenoxyphenyl)-4,5,6,7-tetrahydropyrazolo[1,5-a]pyrimidine-3-carboxamide] | < 1 | > 90 | < 0.01 | 1 to 10 |  |  |  | 
15 | Nc1ncnc2c1c(-c1ccc(Oc3ccccc3)cc1)nn2[C@@H]1CCCN(C(=O)N2CC(N3CCN(c4ccc5c(c4)CN([C@@H]4CCC(=O)NC4=O)C5=O)CC3)C2)C1 [Compound 492, (R)-3-(5-(4-(1-((R)-3-(4-amino-3-(4-phenoxyphenyl)-1H-pyrazolo[3,4-d]pyrimidin-1-yl)piperidine-1-carbonyl)azetidin-3-yl)piperazin-1-yl)-1-oxoisoindolin-2-yl)piperidine-2,6-dione] | < 1 |  |  | < 1 | < 0.01 | > 90 |  | 
16 | Nc1ncnc2c1c(-c1ccc(Oc3ccccc3)cc1)nn2C1CCN(C(=O)C2CN(C3CCN(c4ccc5c(c4)C(=O)N(C4CCC(=O)NC4=O)C5=O)CC3)C2)CC1 (stereo not drawn) [Compound 509, 5-(4-(3-(4-(4-amino-3-(4-phenoxyphenyl)-1H-pyrazolo[3,4-d]pyrimidin-1-yl)piperidine-1-carbonyl)azetidin-1-yl)piperidin-1-yl)-2-(2,6-dioxopiperidin-3-yl)isoindoline-1,3-dione] | < 1 |  |  | < 1 | < 0.01 | > 90 |  | 
17 | Nc1ncnc2c1c(-c1ccc(Oc3ccccc3)cc1)nn2C1CCN(C2CCN(C(=O)N3CCC(CCN4CCN(c5ccc6c(c5)CN(C5CCC(=O)NC5=O)C6=O)CC4)CC3)CC2)CC1 (stereo not drawn) [Compound 252, 3-(5-(4-(2-(1-(4-(4-amino-3-(4-phenoxyphenyl)-1H-pyrazolo[3,4-d]pyrimidin-1-yl)-[1,4′-bipiperidine]-1′-carbonyl)piperidin-4-yl)ethyl)piperazin-1-yl)-1-oxoisoindolin-2-yl)piperidine-2,6-dione] | < 1 | > 90 | 0.01 to 0.05 | < 1 |  |  |  | 

— patent US12139492B2 (Endotarget Inc., priority 2021, dated 2024)
